Measured values as given in US9353089B2, “Compositions and methods for the treatment of malaria” (Saint Louis University, priority 2013, dated 2016).
Like-named read-outs stand apart in the source and are kept apart here.

Columns and labels:
[1] = biological target: recombinant human Cathepsin D (Homo sapiens (Human), UniProt P07339); assay: Cathepsin D enzyme inhibition FRET assay; assay type: biochemical; details: Table 8; read-out: CatD IC50
Experimental: (§1) The enzymatic inhibition activity assays were determined using the fluorescence resonance energy transfer (FRET) assay. The assays were performed in a 384-well plate format. […] The concentration of Cathepsin D was 20 ng/μL, and 1 ng/μL of Cathepsin E was used. CatD and CatE were activated by incubation in assay buffer (0.1 M NaOAc, 0.2 M NaCl, pH 3.5) at room temperature for 30 min. Subsequently, the rhBACE-1 substrate (R&D Systems, catalog# ES004), the Cathepsin D and Cathepsin E substrate (R&D Systems, Catalog # ES001) were added accordingly to final concentration 20 μM to initiate the reaction. After 60 min incubation at room temperature, the time-resolved fluorescence at Ex/Em=360 nm/460 nm was measured on an EnVision multilabel plate reader (Perkin-Elmer). The analytical software, GraphPad Prism 5.0 (GraphPad Software, Inc., USA) was used to generate IC50 values via non-linear regression analysis, which are reported in Tables 8-13 below as BACE1 IC50 values.

[2] = biological target: recombinant human Cathepsin E (Homo sapiens (Human), UniProt P14091); assay: Cathepsin E enzyme inhibition FRET assay; assay type: biochemical; details: Table 8; read-out: CatE IC50
Experimental: as §1

[3] = tested on: Plasmodium falciparum 3D7 (CQ-sensitive); assay: In vitro antimalarial assay (malaria SYBR Green I-based fluorescence, MSF), 3D7; assay type: cell-based
In short: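 Asynchronous P. falciparum 3D7 cultures (0.5% parasitemia, 2% hematocrit) were exposed to serially diluted compounds, in quadruplicate. Growth was then quantified by SYBR Green I fluorescence after adding lysis buffer containing 0.2 μL/mL dye.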

[4] = MLM metabolic stability assay; assay type: in vitro ADME; details: pH 7.4, mouse liver microsomes, read-out: MLM t1/2
Experimental: (§2) In this protocol, the metabolic stability of compounds at 1 μM was determined in Mouse Liver Microsome (MLM), rat liver microsomes (RLM) or human liver microsomes (HLM). […]. After incubation at 37° C. for a specific time period (0, 5, 10, 20 and 30 min), the reaction was terminated by the addition of 200 μL ice cold acetonitrile containing internal standard (100 ng/mL) after 100 μL aliquots of reaction mixture was removed. The quenched reaction mixtures were centrifuged at 3200 rpm for 5 min, and 100 μL of the supernatant were transferred to 96-well deep plate. The samples in 96 well plate were analyzed by LC-MS/MS using an Applied Biosystems-Sciex model API 3000 mass spectrometer. The data were analyzed using the following equations. […]

[5] = tested on: Plasmodium falciparum Dd2 (multi-drug resistant); assay: In vitro antimalarial assay (malaria SYBR Green I-based fluorescence, MSF), Dd2; assay type: cell-based
Experimental: In vitro antimalarial activity was determined by a malaria SYBR Green I-based fluorescence (MSF) method described previously by Smilkstein et al. (2004, which is incorporated herein by reference) with slight modification (Winter, et al., 2006, which is incorporated herein by reference). Stock solutions of each test drug were prepared in DMSO at a concentration of 20 mM. The drug solutions were serially diluted with culture medium and distributed to asynchronous parasite cultures on 96-well plates in quadruplicate in a total volume of 100 μL to achieve 0.5% parasitemia with a 2% hematocrit in a total volume of 100 pt. The plates were then incubated for 72 h at 37° C. After incubation, 100 μL of lysis buffer with 0.2 μL/mL SYBR Green I was added to each well. The plates were incubated at 37° C. for an hour in the dark and then placed in a 96-well fluorescence plate reader (Spectramax Gemini-EM; Molecular Diagnostics) with excitation and emission wavelengths at 497 nm and 520 nm, respectively, for measurement of fluorescence.
Antimalarial potency of compounds was determined by this technique for both Plasmodium falciparum 3D7 (CQ-sensitive) and Dd2 (multi-drug resistant) strains.

[6] = RLM metabolic stability assay; assay type: in vitro ADME; details: pH 7.4, rat liver microsomes, read-out: RLM t1/2
Experimental: as §2

[7] = Rat pharmacokinetic (PK) analysis; assay type: in vivo; details: for half-life: male, SD, plasma, read-out: Rat PK t1/2 (converted)
Experimental: Male SD rats, weighing 180-220 g (Southern China Medical University, China) were utilized for the studies. Animals were maintained on standard animal chow and water ad libitum, in a climate controlled room (23±1° C.), 30-70% relative humidity, a minimum of 10 exchanges of room air per hour and a 12-h light/dark cycle) for one week prior to experiments. The test compound was dissolved in suitable solvent. Pharmacokinetic properties were determined following i.v. and oral administration. Animals were randomly distributed into two experimental groups (n=4). The oral groups were given 5 mg/kg of the test compound by gastric gavage. The other group was dosed by injection into the tail vein (1 mg/kg). […]; 2, 10, 30 min and 1, 2, 3, 4, 6, 8, 11 and 24 h (i.v.). Whole blood samples were collected in heparinized tubes. The plasma fraction was immediately separated by centrifugation (8,000 rpm, 6 min, 4° C.) and stored at −20° C. until LC-MS analysis. The rats were humanely euthanasia by carbon dioxide 24 hours after experiment without pain.
Plasma Sample Analysis. Standard Curve Sample Preparation:
The compound was dissolved in DMSO at a concentration of 2 mg/mL and diluted with 50% methanol solution to series concentration as follow: 20, 50, 100, 500, 1000, 2000, 4000, 6000, 12000, 40000 ng/mL. 10 μL series concentration solution and 50 μL blank plasma were added to 1.5 mL tube and vortex for 3 min, then 150 μL acetonitrile containing internal standard were added and vortex for 5 min, finally spin tube in centrifuge at 16000 g for 40 min at 4° C. Plasma sample preparation: The plasma samples were prepared using protein precipitation method. […] LC/MS/MS analysis: After centrifuge, 100 μL supernatant was transfer to the 96 well plate and analyzed by LC-MS/MS using an Applied Biosystems-Sciex model API 3000 mass spectrometer. The pharmacokinetics parameters were calculated by analyzing the compound concentration in plasma samples using the pharmacokinetic software DAS.2.0.

[8] = HLM metabolic stability assay; assay type: in vitro ADME; details: pH 7.4, human liver microsomes, read-out: HLM t1/2
Experimental: as §2

[9] = 3D7, 48 h, read-out: Pf 3D7 IC50 (μM, 48 hr), 48 hr
[10] = 3D7, 72 h, read-out: Pf 3D7 IC50 (μM, 72 hr), 72 hr
[11] = 3D7, read-out: 3D7 IC50 (μM), Table 13
[12] = 3D7, read-out: Pf3D7 IC50 (μM), Table 10
[13] = 3D7, read-out: Pf 3D7 IC50, Table 8
[14] = DD2, 72 h, read-out: Pf Dd2 IC50 (μM, 72 hr)

recombinant human Cathepsin D, sequence (P07339 65-412): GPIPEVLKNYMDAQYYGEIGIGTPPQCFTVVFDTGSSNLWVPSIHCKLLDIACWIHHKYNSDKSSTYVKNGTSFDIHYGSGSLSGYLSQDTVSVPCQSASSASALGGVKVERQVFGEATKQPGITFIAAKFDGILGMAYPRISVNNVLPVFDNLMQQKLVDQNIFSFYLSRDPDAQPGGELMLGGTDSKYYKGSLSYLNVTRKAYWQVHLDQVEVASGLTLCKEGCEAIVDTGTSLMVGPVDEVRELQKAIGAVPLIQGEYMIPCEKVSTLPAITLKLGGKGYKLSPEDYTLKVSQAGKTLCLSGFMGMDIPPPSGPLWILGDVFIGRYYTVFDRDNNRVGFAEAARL
recombinant human Cathepsin E, sequence (P14091 54-396): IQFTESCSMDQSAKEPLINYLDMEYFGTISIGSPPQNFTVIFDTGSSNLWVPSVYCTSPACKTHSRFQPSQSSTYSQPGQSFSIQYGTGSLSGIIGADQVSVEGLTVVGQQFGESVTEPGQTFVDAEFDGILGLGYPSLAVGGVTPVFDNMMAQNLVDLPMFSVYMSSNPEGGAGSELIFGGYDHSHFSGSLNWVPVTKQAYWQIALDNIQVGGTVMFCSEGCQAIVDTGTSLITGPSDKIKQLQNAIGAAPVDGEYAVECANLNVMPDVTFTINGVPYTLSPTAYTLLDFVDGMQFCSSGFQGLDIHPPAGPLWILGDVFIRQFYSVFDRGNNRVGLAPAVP

Row | Compound | IC50 [1] [µM] | IC50 [2] [µM] | IC50 [3, 9] [µM] | IC50 [3, 10] [µM] | IC50 [3, 11] [µM] | IC50 [3, 12] [µM] | IC50 [3, 13] [µM] | half-life at 1 μM [4] [min] | IC50 [5, 14] [µM] | half-life at 1 μM [6] [min] | half-life [7] [min] | IC50 ([5]; DD2, read-out: Dd2 IC50 (μM)) [µM] | half-life at 1 μM [8] [min] | Rat PK oral bioavailability (% F) ([7]; 5 mg/kg oral, 1 mg/kg i.v.)
1 | COc1ccc(C2(c3ccc(OC)cc3)NC(=N)N(C3CCN(C(=O)OC(C)(C)C)CC3)C2=O)cc1 [Example 206, tert-butyl 4-[2-imino-4,4-bis(4-methoxyphenyl)-5-oxoimidazolidin-1-yl]piperidine-1-carboxylate] | 0.52 | 0.233 | 0.339 | 0.383 | 0.436 | 0.436 | 0.383 | 26 | 0.367 | 14 | 72 |  |  | 
2 | COc1ccc(C2(c3ccc(OC)cc3)NC(=N)N(CC3CCOCC3)C2=O)cc1 [Example 275, 2-imino-5,5-bis(4-methoxyphenyl)-3-(oxan-4-ylmethyl)imidazolidin-4-one] | 0.934 | 0.841 | 0.571 | 0.463 | 0.521 | 0.463 | 0.463 |  | 0.442 | 35 |  | 0.442 |  | 
3 | COc1ccc(C2(c3ccc(OC)cc3)NC(=N)N(C3CCOCC3)C2=O)cc1 [Example 176, 2-imino-5,5-bis(4-methoxyphenyl)-3-(oxan-4-yl)-imidazolidin-4-one] | > 10 | 0.511 | 0.404 | 0.459 | 0.459 | 0.459 | 0.453 |  | 0.526 | 83 | 66 | 0.526 | 36 | 21
